These results are taken from US8741932B2, “Imidazopyridine derivatives” (Piramal Enterprises Limited, priority 2009, dated 2014).

The term pIC50 denotes the IC50 on a negative log10 scale, so that one unit is a factor of ten. The term IC50 denotes the concentration that gives 50% inhibition. A word on the inhibition: it is the relative decrease from the control value, in per cent.

One test has as its system A549. Nature of the test: Cytotoxicity assay (propidium iodide), A549. It is filed as cell-based. Conditions: Homo sapiens; A549 (C1a, lung); 48 hours.
In another test the test system is H460. Briefly: Cytotoxicity assay (propidium iodide), H460. Type of test: cell-based. Conditions: Homo sapiens, NCI-H460; H460 (C1b, lung); 48 hours.
Another test concerns A2780. Briefly: Cytotoxicity assay (propidium iodide), A2780. Conditions: Homo sapiens; A2780 (C3a, ovarian); 48 hours. Type of test: cell-based.
For a further test, the system named is MDA MB 468. Briefly: Cytotoxicity assay (propidium iodide), MDA MB 468. It is filed as cell-based. Conditions: Homo sapiens; MDA MB 468 (C6b, breast); 48 hours.
The subject of a further test is BT 549. Briefly: Cytotoxicity assay (propidium iodide), BT 549. Type of test: cell-based. Conditions: Homo sapiens; BT 549 (C6d, breast); 48 hours.
In the next test the test system is STAT3. Nature of the test: STAT3 bioassay (Hela Stat3-luc, luciferase). It is filed as cell-based. Conditions: Homo sapiens, Oncostatin M induction. In short, it runs like this:
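Hela Stat3-luc cells (20,000/well, 24 h) pretreated with compound 1 h, then induced with 100 ng/ml final Oncostatin M for 7-8 h at 37 °C. Luciferase luminescence after lysis; percent inhibition versus induction control, IC50 from these percentages.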

The subject of test [1] is IL-6. Nature of the test: Human monocyte assay, LPS-stimulated IL-6. Conditions: Monocyte; human monocytes, 1 μg/ml LPS, 5 hours. It is filed as cell-based. In short, it runs like this:
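Adherent human PBMC-derived monocytes (2×10^4/well) were cultured 48 h, preincubated 30 min with compound or 0.5% DMSO, then stimulated with 1 μg/ml E. coli LPS for 5 h at 37° C. TNF-α and IL-6 in supernatants were measured by ELISA.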

Test [2] deals with IL-6. Nature of the test: Synovial tissue assay, IL-6. Type of test: cell-based. To be noted: Homo sapiens; synovial tissue cells from rheumatoid arthritis patients, 16 hours. The procedure:
(§1) The assay was designed as in the reference, Lancet, 2(8657), 244-7, Jul.
(§2) Stock Solution: Compounds of the present invention were dissolved in DMSO to obtain a stock solution of 20 mM.
(§3) Synovial tissue was obtained from rheumatoid arthritis patients undergoing knee replacement surgery. The tissue was minced into small pieces and digested in RPMI medium containing 100 U/ml penicillin-G, 100 μg/ml streptomycin, 50 ng/ml amphotericin B (GIBCO; USA), 1.33 mg/ml collagenase Type I (Worthington Biochemical Corporation, New Jersey), 0.5 μg/ml DNAse Type I (Sigma Aldrich; St. Louis, Mo.) and 8.33 U/ml heparin (Biological E. Limited, India) for 3 hours at 37° C., 5% CO2. The digested tissue was filtered through a membrane (mesh size 70 micron; Sigma Aldrich). Subsequently, the cells were washed 3 times and resuspended in complete medium (RPMI supplemented with 5% FBS and 5% human serum-AB+) at a concentration of 1×10^6 cells/ml. All cell washes in this assay were performed using Rosewall Park Memorial Institute (RPMI)-1640 medium (JRH; Australia). For the experiment, 100 μl of cell suspension was added to the wells of a 96-well culture plate. Following cell plating, 100 μl of the culture medium and 1 μl of various concentrations (0.01, 0.03, 0.1, 0.3, 1, 3, 10, 30 and 100 μM) of the compounds of present invention dissolved in DMSO were added to the cells. The final concentration of DMSO was adjusted to 0.5%. For experimental purposes, 1 μl of […] concentrated solution of the compounds of present invention were dissolved in 200 μl cell suspension to achieve a final concentration of 0.01, 0.03, 0.1, 0.3, 1, 3, 10, 30 and 100 μM. The vehicle (0.5% DMSO) was used as control. 10 μM dexamethasone (Sigma Aldrich) or 1 μM 7-hydroxyfluorinide (7HF) were used as standards for the experiments. The plates were incubated for 16 hours at 37° C., 5% CO2. Subsequently, the supernatants were harvested and stored at −70° C. The amounts of TNF-α, IL-6 and interleukin-8 (IL-8) in the supernatants were assayed using OptiEIA ELISA sets, (BD BioSciences Pharmingen). The protocol followed was as per manufacturers instructions. […] The cytotoxicity of test compounds in synovial cells was assessed by MTS assay. Absorbance was measured at 490 nm. Percent cytotoxicity was calculated by the equation: % Cytotoxicity=(A−B)/A×100 where, A is the absorbance of cells treated with DMSO alone and B is the absorbance of cells treated with the test article.

For the next test, the system named is TNF-α. Briefly: Synovial tissue assay, TNF-α. It is filed as cell-based. To be noted: Homo sapiens; synovial tissue cells from rheumatoid arthritis patients, 16 hours. The procedure: as §1, §2, §3
In the next test the test system is IL-8. Nature of the test: Synovial tissue assay, IL-8. It is filed as cell-based. Conditions: Homo sapiens; synovial tissue cells from rheumatoid arthritis patients, 16 hours. The procedure: as §1, §2, §3
A further test has as its system PC3. Briefly: Cytotoxicity assay (propidium iodide), PC3. Conditions: Homo sapiens, PC-3, 48 h, read-out: IC50 cytotoxicity.
Another test has as its system HT29. Nature of the test: Cytotoxicity assay (propidium iodide), HT29. It is filed as cell-based. To be noted: Homo sapiens, HT-29; HT29 (C4a, colon); 48 hours.
For another test, the system named is MDA MB 231. Briefly: Cytotoxicity assay (propidium iodide), MDA MB 231. It is filed as cell-based. Conditions: Homo sapiens; MDA MB 231 (C6a, breast); 48 hours.
In the next test the target is T1, PI3Kα kinase (Homo sapiens, UniProt P42336).
T1 construct: purchased Millipore, USA
T1 sequence (P42336 whole entry): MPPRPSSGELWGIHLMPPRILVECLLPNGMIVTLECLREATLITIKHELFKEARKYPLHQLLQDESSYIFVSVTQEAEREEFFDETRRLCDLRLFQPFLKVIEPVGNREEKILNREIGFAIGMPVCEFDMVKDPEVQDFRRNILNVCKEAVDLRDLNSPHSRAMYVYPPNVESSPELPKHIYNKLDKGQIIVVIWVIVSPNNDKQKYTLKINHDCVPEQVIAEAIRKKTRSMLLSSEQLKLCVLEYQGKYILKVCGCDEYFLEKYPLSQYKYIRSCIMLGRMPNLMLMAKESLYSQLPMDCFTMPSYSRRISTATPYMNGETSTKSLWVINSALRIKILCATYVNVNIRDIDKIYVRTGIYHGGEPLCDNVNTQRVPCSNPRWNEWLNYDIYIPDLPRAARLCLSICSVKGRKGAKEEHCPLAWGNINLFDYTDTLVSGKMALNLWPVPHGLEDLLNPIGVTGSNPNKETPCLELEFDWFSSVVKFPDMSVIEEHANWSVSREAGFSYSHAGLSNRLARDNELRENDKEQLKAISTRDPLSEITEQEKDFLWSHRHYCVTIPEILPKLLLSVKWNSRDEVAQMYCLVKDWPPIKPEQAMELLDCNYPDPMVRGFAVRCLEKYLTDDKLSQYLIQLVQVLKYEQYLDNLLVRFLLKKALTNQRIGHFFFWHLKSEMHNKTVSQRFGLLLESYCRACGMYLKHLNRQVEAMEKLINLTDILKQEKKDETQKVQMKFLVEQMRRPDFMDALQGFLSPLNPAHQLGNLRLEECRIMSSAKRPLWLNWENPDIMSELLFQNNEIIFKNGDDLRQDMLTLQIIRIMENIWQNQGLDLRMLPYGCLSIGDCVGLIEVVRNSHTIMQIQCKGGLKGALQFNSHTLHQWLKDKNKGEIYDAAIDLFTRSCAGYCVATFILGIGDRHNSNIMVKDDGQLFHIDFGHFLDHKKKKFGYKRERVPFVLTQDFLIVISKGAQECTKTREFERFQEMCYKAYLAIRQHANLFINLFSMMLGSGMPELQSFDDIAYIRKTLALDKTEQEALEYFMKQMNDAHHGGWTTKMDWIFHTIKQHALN
T1 sequence (P27986 whole entry partner): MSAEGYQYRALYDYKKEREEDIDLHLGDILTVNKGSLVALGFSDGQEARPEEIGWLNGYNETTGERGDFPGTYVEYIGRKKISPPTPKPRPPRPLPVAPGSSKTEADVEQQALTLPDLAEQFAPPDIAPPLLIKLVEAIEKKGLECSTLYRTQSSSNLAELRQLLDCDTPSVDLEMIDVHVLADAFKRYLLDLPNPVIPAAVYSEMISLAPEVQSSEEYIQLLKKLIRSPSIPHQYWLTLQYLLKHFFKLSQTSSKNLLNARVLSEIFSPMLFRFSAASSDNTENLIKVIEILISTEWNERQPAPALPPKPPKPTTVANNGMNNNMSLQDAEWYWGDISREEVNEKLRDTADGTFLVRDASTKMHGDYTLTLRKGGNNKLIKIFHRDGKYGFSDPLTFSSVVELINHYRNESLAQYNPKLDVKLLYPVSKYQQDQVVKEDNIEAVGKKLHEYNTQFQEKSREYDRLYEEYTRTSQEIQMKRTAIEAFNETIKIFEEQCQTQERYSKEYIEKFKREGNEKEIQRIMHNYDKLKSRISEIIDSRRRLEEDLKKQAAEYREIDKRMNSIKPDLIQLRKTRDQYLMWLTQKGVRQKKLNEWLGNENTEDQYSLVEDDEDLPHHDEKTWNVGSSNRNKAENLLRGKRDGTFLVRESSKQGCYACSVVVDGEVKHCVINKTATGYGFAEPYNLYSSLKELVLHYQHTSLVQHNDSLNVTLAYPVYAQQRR
Nature of the test: Kinase assay (PI3Kα). Conditions: read-out: IC50 (μM) for PI3K inhibition. Type of test: biochemical. As to the method:
The kinase reaction was carried out in a 25 μL volume in a 1.5 mL microcentrifuge tube. The reaction mixture consisted of kinase buffer (10 mM Hepes, pH 7.5, 50 mM MgCl2), 20 ng PI3Kα kinase (Millipore, USA), 12.5 μg phosphotidylinositol (PI), 10 μM ATP and 1 μCi ^32γ P […]. […] The reactions were incubated at 30° C. for 20 minutes and were terminated by adding 1:1 mixture of MeOH and CHCl3. The tube contents were mixed on a vortex mixer and centrifuged at 10000 rpm for 2 minutes. 10 μL of the organic (lower) phase was spotted on to a TLC plate (silica, mobile phase: n-propanol and 2 M glacial acetic acid in 65:35 ratio). The plates were dried and exposed to an X-ray film. The bands appearing as a result of ^32γ P incorporation in PI were quantitated using the Quantityl)ne (BioRad, USA) densitometry program. PI-103 (Calbiochem, USA) was used as a standard.

The target of the next test is T2, mTOR (Homo sapiens, UniProt P42345).
T2 construct: endogenous in cells; host or cells: A2780 ovarian cell line (ATCC)
Nature of the test: mTOR activity assay (cell ELISA, Phospho-AKT Ser 473, A2780 cells). It is filed as cell-based. Conditions: for inhibition at 1 µM: read-out: % Inhibition of mTOR activity at 1 μM. As to the method:
Seed cells (Ovarian cell line A2780, ATCC) were plated in a 96 well microtitre plate at a density of 50,000 cells/cm^2 in appropriate complete cell culture medium. The cells were allowed to adhere for 18-24 hours. The cells were allowed to starve for 24 hours. […] Then the cells were stimulated with 20% FCS for 30 minutes. A typical assay would consist of a set of unstimulated cells, a set of stimulated cells and a set of cells treated with compounds of present invention and a set of cells treated with the stimulator. The medium was discarded. The cells were fixed with 100 μL of 3.7% formaldehyde for 15 minutes. The formaldehyde was discarded by inverting the plate and tapping it on a thick tissue paper layer to remove traces. The cells were washed and permeabilized with 200 μL PBS+Triton-X 100 solution (hereafter referred to as PBS-Triton, containing 0.1% triton-X 100 in 1×PBS) three times, incubating the cells each time for 5 minutes. 100 μL blocking solution (10% FCS in PBS-Triton) was added and incubated for 1 hour at 25° C. The blocking solution was discarded and cells were incubated with the primary antibody in PBS-Triton at a dilution of 1:500 for 1 hour at RT (25° C.). [The primary antibody is Phospho-AKT (Ser 473); Cell Signaling; Cat. No. 9271]. The primary antibody solution was discarded and the cells were washed 3 times with PBS-Triton solution and incubated with the HRP-conjugated secondary antibody in PBS-Triton at a dilution of 1:500 for 1 hour at RT (25° C.). The cells were washed 3 times with PBS-Triton followed by two washes with PBS (to remove traces of triton-X 100). The OPD (o-phenylene diamine dihydrochloride) substrate was prepared for detection of the signal by dissolving one tablet set (two tablets) of SigmaFast OPD (Sigma, Cat No. P9187) in 20 mL distilled water. It should be protected from light. 100 μL OPD solutions was added to the wells and the plate was incubated in the dark for 3-5 minutes (depending upon the development of the color). The reaction was stopped by adding 50 μL 2 N H2SO4. The absorbance was measured at 490 nm. The values were expressed in the treated samples, in terms of percentage or fold decrease in AKT phosphorylation with respect to the induced sample. PI-103 (Calbiochem, USA) was used as a standard.
On the technique in general: An ELISA detects its analyte on a solid surface through an enzyme-linked reagent.

In a further test the test system is SKOV3. Nature of the test: Cytotoxicity assay (propidium iodide), SKOV3. Type of test: cell-based. To be noted: Homo sapiens, SK-OV-3; SKOV3 (C3b, ovarian); 48 hours.
A further test relates to OVCAR 3. Nature of the test: Cytotoxicity assay (propidium iodide), OVCAR 3. It is filed as cell-based. Conditions: Homo sapiens; OVCAR 3 (C3c, ovarian); 48 hours.
Another test relates to PANC 1. Nature of the test: Cytotoxicity assay (propidium iodide), PANC 1. To be noted: Homo sapiens; PANC 1 (C5a, pancreatic); 48 hours. It is filed as cell-based.
A further test has as its system CAPAN1. Briefly: Cytotoxicity assay (propidium iodide), CAPAN1. It is filed as cell-based. To be noted: Homo sapiens, CAPAN-1; CAPAN1 (C5b, pancreatic); 48 hours.
For the next test, the system named is MCF7. Nature of the test: Cytotoxicity assay (propidium iodide), MCF7. It is filed as cell-based. Conditions: Homo sapiens; MCF7 (C6c, breast); 48 hours.
The test system of a further test is G361. Briefly: Cytotoxicity assay (propidium iodide), G361. It is filed as cell-based. To be noted: G-361; G361 (C9a, human melanoma); 48 hours.

pIC50: −log10 of the molar value.

Protocol for A549: (§4) Cells from cell lines as mentioned in the table given below were seeded at a density of 3000 cells/well in a white opaque 96-well plate. Following incubation at 37° C./5% CO2 for a period of 18-24 hours, the cells were treated with various concentrations (stock solution was prepared in DMSO and subsequent dilutions were made in media as per ATCC guidelines) of the representative compounds of present invention (refer table 3) for a period of 48 hours. At the end of treatment, the spent culture medium was discarded, the cells were washed with 1×PBS and 200 μl of 7 μg/ml propidium iodide was added to each well. The plates were frozen at −70° C. for at least 24 hours. For analysis, the plates were brought to RT, allowed to thaw and were read in PolarStar fluorimeter with the fluorescence setting. The percentage of viable cells in the non treated set of wells was considered to be 100 and the percentage viability following treatment was calculated accordingly. IC50 values were calculated from graphs plotted using these percentages.
Protocol for BT 549: as §4
Protocol for CAPAN1: as §4
Protocol for G361: as §4
Protocol for H460: as §4
Protocol for HT29: as §4
Protocol for MCF7: as §4
Protocol for MDA MB 231: as §4
Protocol for MDA MB 468: as §4
Protocol for PANC 1: as §4
Protocol for PC3: as §4
Protocol for SKOV3: as §4

Turning to `CN(N=Cc1cnc2ccc(-c3cccnc3)cn12)S(=O)(=O)c1ccccc1C#N` [Example 9, 2-Cyano-N-methyl-N′-((6-(pyridine-3-yl)imidazo[1,2-a]pyridine-3-yl)methylene)benzenesulfonohydrazide], the pIC50 was 5.30 to 8.00 in the test with A549; 5.30 to 8.00 in the test on H460; 5.30 to 8.00 with A2780; 5.30 to 8.00 in the test on MDA MB 468; 5.30 to 8.00 in the test with BT 549; 5.00 to 5.30 with STAT3. In the test on PC3, the pIC50 was 5.30 to 8.00. The IC50 with IL-6 [1] fell in the range of 0.001 to 5 µM; in the test with IL-6 [2] it was 0.01 to 0.3 µM; in the test with TNF-α, 0.01 to 0.3 µM; in the test with IL-8, 0.3 to 3 µM.

As for `Cc1ccc([N+](=O)[O-])cc1S(=O)(=O)N(C)N=Cc1cnc2ccc(-c3ccncc3)cn12` [Example 85, N, 2-dimethyl-5-nitro-N′-((6-(pyridine-4-yl)imidazo[1,2-a]pyridine-3-yl)methylene) benzenesulfonohydrazide], the negative-log IC50 (pIC50) in the test with A549 is 5.30 to 8.00; in the test with H460 it was 5.30 to 8.00; with A2780, 5.30 to 8.00; in the test with HT29, under 5.30; in the test with MDA MB 231, 5.30 to 8.00; in the test on PC3 it was 5.30 to 8.00.

As for `CN(N=Cc1cnc2ccc(-c3cccnc3)cn12)S(=O)(=O)c1c(F)cc(F)cc1Br` [Example 26, 2-Bromo-4,6-difluoro-N-methyl-N′-((6-(pyridine-3-yl)imidazo[1,2-a]pyridine-3-yl)methylene) benzenesulfonohydrazide], the IC50 on PI3Kα kinase fell in the range of 0.01 to 0.5 µM; in the test with IL-6 [1], 0.001 to 5 µM. This molecule registered an inhibition at 10 µM against mTOR (10 μM) of over 50%. Also, the pIC50 in the test with A549, in the test on H460, in the test with A2780, with SKOV3, in the test on OVCAR 3 and in the test with PANC 1 was 5.30 to 8.00 each time. The values for the pIC50 with CAPAN1 and with STAT3 were 5.30 to 8.00 and 5.30 to 7.00, respectively.

Consider `CN(N=Cc1cnc2ccc(-c3cccnc3)cn12)S(=O)(=O)c1cccc(Br)c1` [Example 7, 3-Bromo-N-methyl-N′-((6-(pyridine-3-yl)imidazo[1,2-a]pyridine-3-yl)methylene) benzenesulfonohydrazide], for which, on PI3Kα kinase, the IC50 is 0.01 to 0.5 µM. Further, on mTOR, the inhibition at 1 µM was in the range of 30 to 50%. Moreover, the pIC50 in the test with A549, in the test with H460, in the test on MDA MB 468, in the test with MCF7, in the test on G361 and with PC3 was under 5.30 in each case.

With `CN(N=Cc1cnc2ccc(-c3cccnc3)cn12)S(=O)(=O)C1CCCCC1` [Example 31, N-methyl-N′-((6-(pyridine-3-yl)imidazo[1,2-a]pyridine-3-yl)methylene) cyclohexanesulfonohydrazide], the pIC50 with A549 is 5.30 to 8.00; in the test with H460, 5.30 to 8.00; in the test with A2780, 5.30 to 8.00; with HT29, under 5.30; with MDA MB 231, 5.30 to 8.00; with PC3, 5.30 to 8.00.

As to `CN(N=Cc1cnc2ccc(-c3cccnc3)cn12)S(=O)(=O)c1ccc(C#N)cc1` [Example 11, 4-Cyano-N-methyl-N′-((6-(pyridine-3-yl)imidazo[1,2-a]pyridine-3-yl)methylene)benzenesulfonohydrazide], the figures for the IC50 on PI3Kα kinase and in the test with IL-6 [1] were 0.01 to 0.5 µM and at least 5 µM, respectively. For the same molecule, the inhibition at 1 µM on mTOR was 30 to 50%. Also, the pIC50 in the test on A549, in the test on H460, with A2780, in the test with MDA MB 468, in the test with BT 549 and in the test on PC3 was under 5.30 in each case.
